Measured values from ChEMBL document CHEMBL5465560, “Selectivity Literature for EUbOPEN Chemogenomic Library” (2024).

Columns and labels:
[1] = target: Serine/threonine-protein kinase MRCK alpha (Homo sapiens) (UniProt Q5VT25); assay: Selectivity interaction (KinomeScan (DiscoverX)) EUB0000666a CDC42BPA; conditions: at 10 µM
[2] = target: Cyclin-dependent kinase 14/Cyclin-Y (Homo sapiens) (UniProt O94921+Q8ND76); assay: Selectivity interaction (LanthaScreen Eu Kinase Binding Assay) EUB0001632a CDK14; format: protein-complex assay; conditions: at 10 µM
[3] = target: T1, Calcium/calmodulin-dependent protein kinase type IV (Homo sapiens) (UniProt Q16566); assay: Selectivity interaction (SelectScreen profiling (Invitrogen)) EUB0000607a CAMK4; conditions: at 2 µM
T1 sequence (whole entry): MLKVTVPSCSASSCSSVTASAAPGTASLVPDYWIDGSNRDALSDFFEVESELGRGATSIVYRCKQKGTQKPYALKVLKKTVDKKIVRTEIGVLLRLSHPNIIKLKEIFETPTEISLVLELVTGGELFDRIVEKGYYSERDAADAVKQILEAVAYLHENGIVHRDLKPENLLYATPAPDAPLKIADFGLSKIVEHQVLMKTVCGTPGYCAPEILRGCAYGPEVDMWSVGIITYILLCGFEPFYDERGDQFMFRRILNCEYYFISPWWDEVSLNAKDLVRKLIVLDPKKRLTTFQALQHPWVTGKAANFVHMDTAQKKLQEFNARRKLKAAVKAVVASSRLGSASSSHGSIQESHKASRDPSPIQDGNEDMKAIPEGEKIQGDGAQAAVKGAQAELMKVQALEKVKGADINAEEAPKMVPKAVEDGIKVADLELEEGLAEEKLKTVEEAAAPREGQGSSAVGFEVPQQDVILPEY

[4] = target: T2, Serine/threonine-protein kinase TBK1 (Homo sapiens) (UniProt Q9UHD2); assay: Selectivity interaction (KinomeScan (DiscoverX)) EUB0000607a TBK1; conditions: at 10 µM
T2 sequence (whole entry): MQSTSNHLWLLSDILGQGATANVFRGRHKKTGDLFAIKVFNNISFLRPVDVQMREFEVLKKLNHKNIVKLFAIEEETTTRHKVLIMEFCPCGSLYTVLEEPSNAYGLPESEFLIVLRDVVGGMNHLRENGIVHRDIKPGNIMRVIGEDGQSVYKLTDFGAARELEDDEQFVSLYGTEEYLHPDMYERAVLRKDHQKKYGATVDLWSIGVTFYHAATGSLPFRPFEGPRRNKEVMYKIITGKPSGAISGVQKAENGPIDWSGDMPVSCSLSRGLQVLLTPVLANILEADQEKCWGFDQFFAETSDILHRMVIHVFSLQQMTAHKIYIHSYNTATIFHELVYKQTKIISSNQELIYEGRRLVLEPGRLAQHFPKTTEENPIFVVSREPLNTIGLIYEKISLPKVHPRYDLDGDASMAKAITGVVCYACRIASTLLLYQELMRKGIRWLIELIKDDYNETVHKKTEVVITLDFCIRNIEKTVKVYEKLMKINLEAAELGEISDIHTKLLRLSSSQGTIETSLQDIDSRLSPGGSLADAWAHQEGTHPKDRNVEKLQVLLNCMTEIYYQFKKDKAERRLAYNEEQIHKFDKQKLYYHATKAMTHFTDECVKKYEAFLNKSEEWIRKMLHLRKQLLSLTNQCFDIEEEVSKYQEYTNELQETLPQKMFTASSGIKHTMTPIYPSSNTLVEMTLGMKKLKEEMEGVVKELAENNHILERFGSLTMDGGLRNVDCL

[5] = test system: Epidermal growth factor receptor (Homo sapiens), P00533 [UNDEFINED MUTATION]; assay: Selectivity interaction (KinomeScan (DiscoverX)) EUB0000618a EGFR; conditions: at 10 µM
[6] = target: T3, Serine/threonine-protein kinase BRSK1 (Homo sapiens) (UniProt Q8TDC3); assay: Selectivity interaction (KinomeScan (DiscoverX)) EUB0001619a BRSK1; conditions: at 1 µM
T3 sequence (whole entry): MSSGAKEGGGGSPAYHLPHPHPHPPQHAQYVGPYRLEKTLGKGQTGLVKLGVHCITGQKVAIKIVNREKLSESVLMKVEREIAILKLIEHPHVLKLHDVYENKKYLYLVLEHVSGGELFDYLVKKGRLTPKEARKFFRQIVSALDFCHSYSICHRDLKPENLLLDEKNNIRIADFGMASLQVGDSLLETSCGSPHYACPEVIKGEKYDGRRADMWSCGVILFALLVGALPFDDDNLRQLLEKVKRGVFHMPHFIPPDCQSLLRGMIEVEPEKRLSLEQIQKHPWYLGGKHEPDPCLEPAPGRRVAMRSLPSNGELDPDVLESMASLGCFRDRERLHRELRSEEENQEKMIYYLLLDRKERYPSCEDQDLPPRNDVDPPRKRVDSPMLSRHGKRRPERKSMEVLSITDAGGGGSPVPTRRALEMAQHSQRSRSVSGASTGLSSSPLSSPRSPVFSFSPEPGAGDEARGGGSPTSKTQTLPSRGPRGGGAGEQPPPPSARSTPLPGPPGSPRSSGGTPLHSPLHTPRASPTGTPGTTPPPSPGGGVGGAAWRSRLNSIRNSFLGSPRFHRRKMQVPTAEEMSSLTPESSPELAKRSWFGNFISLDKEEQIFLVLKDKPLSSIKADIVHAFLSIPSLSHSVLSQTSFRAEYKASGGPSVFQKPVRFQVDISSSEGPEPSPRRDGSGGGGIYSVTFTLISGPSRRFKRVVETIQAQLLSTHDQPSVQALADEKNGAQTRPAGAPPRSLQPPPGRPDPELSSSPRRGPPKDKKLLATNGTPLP

Sequence of Serine/threonine-protein kinase MRCK alpha (Homo sapiens) (Q5VT25 whole entry): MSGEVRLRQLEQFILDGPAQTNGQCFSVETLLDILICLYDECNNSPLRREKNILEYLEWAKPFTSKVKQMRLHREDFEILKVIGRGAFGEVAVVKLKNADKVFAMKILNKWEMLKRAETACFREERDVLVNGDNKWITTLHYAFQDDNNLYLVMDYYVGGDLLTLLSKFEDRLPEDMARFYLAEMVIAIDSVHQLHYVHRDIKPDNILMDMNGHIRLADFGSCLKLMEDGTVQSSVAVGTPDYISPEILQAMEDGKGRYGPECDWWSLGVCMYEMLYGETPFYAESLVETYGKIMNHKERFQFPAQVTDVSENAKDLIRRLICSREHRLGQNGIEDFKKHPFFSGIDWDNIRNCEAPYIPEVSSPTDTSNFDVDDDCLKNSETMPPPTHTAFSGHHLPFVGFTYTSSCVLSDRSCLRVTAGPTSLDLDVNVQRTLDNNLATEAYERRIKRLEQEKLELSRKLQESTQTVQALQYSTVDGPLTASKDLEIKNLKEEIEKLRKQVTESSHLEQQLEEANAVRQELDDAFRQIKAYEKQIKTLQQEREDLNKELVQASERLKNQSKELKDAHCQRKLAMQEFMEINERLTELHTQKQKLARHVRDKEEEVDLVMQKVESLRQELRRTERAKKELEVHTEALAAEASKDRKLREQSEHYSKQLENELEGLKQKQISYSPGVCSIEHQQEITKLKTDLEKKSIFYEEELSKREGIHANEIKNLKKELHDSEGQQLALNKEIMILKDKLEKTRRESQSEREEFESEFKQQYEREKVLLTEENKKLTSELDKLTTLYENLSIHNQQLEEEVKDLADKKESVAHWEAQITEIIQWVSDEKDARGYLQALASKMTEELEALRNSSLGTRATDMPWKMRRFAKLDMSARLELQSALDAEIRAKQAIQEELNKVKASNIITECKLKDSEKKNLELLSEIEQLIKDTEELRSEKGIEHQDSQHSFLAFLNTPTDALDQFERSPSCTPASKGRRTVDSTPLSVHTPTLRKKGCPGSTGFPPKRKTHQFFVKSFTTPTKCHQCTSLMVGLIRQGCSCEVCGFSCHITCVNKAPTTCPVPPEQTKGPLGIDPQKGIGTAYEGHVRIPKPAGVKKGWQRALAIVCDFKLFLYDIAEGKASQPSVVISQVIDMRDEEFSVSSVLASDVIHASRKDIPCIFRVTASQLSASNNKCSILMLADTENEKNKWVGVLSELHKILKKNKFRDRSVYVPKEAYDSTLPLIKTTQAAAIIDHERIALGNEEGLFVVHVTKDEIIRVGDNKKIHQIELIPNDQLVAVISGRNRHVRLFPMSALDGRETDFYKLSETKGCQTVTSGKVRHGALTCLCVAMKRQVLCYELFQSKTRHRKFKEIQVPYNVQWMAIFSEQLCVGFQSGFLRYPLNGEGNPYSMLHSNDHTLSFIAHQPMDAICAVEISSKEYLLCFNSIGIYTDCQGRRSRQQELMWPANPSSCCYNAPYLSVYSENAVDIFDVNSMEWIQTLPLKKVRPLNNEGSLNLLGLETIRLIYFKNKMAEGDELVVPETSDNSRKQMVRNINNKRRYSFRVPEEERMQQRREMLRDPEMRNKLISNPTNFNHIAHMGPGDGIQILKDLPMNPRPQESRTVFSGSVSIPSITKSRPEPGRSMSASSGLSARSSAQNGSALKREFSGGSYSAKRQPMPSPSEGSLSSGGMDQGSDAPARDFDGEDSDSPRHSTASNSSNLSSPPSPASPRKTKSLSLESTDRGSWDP
Sequence of Epidermal growth factor receptor (Homo sapiens), P00533 [UNDEFINED MUTATION] (P00533 whole entry, looked up, change not shown): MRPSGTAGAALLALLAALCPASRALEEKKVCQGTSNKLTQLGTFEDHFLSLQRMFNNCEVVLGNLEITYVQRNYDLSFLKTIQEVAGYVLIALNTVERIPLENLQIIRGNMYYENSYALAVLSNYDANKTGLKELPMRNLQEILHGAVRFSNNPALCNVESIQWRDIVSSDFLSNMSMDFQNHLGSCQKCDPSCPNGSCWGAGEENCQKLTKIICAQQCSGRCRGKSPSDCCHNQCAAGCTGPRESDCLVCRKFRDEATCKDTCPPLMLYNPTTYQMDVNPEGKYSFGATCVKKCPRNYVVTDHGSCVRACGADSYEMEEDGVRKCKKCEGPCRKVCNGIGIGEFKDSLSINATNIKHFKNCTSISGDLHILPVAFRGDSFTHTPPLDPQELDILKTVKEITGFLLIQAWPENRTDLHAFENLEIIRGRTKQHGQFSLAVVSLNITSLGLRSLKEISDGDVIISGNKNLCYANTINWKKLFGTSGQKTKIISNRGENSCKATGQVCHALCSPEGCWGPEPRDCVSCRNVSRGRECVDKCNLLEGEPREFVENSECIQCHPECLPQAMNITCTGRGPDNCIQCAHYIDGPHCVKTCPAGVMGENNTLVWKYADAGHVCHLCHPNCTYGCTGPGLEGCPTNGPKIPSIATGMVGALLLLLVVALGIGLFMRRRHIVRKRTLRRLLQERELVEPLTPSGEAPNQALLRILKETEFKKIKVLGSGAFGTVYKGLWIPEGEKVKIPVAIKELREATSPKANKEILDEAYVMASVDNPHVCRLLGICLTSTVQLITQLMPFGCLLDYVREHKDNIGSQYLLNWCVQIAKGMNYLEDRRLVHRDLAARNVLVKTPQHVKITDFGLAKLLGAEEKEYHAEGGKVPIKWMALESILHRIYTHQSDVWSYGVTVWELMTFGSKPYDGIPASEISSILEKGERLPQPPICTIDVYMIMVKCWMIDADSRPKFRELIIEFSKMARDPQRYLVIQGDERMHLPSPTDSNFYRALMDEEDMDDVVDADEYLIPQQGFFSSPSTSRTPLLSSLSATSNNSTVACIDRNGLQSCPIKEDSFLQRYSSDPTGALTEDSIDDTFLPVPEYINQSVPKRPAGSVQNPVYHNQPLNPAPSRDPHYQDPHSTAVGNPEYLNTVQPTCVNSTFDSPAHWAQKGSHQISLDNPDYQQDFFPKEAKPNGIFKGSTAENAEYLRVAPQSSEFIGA

O=C(NOC[C@H](O)CO)c1ccc(F)c(F)c1Nc1ccc(I)cc1F
% of control [1]: 100%

Cn1cc(-n2cnc3c(NCc4nc5cc(Cl)c(Cl)cc5[nH]4)nc(N4CCOCC4)nc32)cn1
% of inhibition [2]: -159%

CNC(=O)Nc1ccc(-c2nc(N3CC4CCC(C3)O4)c3cnn(C4CCC5(CC4)OCCO5)c3n2)cc1
% of inhibition [3]: -1% | % of control [4]: 82%

O[C@H]1CC[C@H](Nc2ncc3nc(Nc4c(F)cc(F)cc4F)n([C@H]4CCOC4)c3n2)CC1
% of control [5]: 5.7%

N#Cc1cccc(-c2c[nH]c3ncnc(N4CCOCC4)c23)c1
% of control [6]: 100%
